Converted amounts (≈) assume the structure as drawn. Like-named read-outs stand apart in the source and are kept apart here.
Columns and labels:
Type in all cases: cell-based
[1] = system: strains of Prevotella bivia; test: MIC against anaerobes, agar dilution (CLSI), clinical isolates
[2] = system: strains of Bacteroides fragilis; test: as above
[3] = system: strains of Finegoldia magna; test: as above
[4] = system: strains of Propionibacterium acnes; test: as above; details: Cutibacterium acnes
[5] = system: strains of Parvimonas micra; test: as above
[6] = system: Bacteroides thetaiotaomicron ATCC 29741; test: microbe, parasite or virus in culture; details: ATCC29741, 48 h, read-out: MIC, B. thetaiotaomicron ATCC
[7] = system: Bacteroides fragilis ATCC 25285; test: MIC against anaerobes, agar dilution (CLSI), reference strain; details: ATCC25285, 48 h, read-out: MIC, B. fragilis ATCC 25285
[8] = system: strains of Clostridium perfringens; test: microbe, parasite or virus in culture
[9] = system: strains of Peptostreptococcus anaerobius; test: MIC against anaerobes, agar dilution (CLSI), clinical isolates
[10] = system: strains of Peptoniphilus harei; test: as above
[11] = system: Clostridium difficile ATCC 700057; test: MIC against anaerobes, agar dilution (CLSI), reference strain; details: Clostridioides difficile, ATCC700057, 48 h, read-out: MIC, C. difficile ATCC 700057
[12] = system: strains of Bacteroides thetaiotaomicron; test: microbe, parasite or virus in culture
[13] = system: strains of Prevotella melaninogenica; test: MIC against anaerobes, agar dilution (CLSI), clinical isolates

CN[C@H](CC(C)C)C(=O)N[C@H]1C(=O)N[C@@H](CC(N)=O)C(=O)N[C@H]2C(=O)N[C@H]3C(=O)N[C@H](C(=O)N[C@H](C(=O)O)c4cc(O)cc(O)c4-c4cc3ccc4O)[C@H](O)c3ccc(c(Cl)c3)Oc3cc2cc(c3O[C@@H]2O[C@H](CO)[C@@H](O)[C@H](O)[C@H]2O[C@H]2C[C@](C)(N)[C@H](O)[C@H](C)O2)Oc2ccc(cc2Cl)[C@H]1O [VAN, vancomycin, reference compound]
MIC ([1]; Prevotella bivia strain 1): > 64 µg/mL | MIC ([1]; Prevotella bivia strain 2): > 64 µg/mL | MIC ([1]; Prevotella bivia strain 3): 16 to 64 µg/mL (≈ 11 to 44.2 µM) | MIC ([1]; Prevotella bivia strain 4): > 64 µg/mL | MIC ([1]; Prevotella bivia strain 5): > 64 µg/mL | MIC ([1]; Prevotella bivia strain 6): > 64 µg/mL | MIC ([1]; Prevotella bivia strain 7): > 64 µg/mL | MIC ([1]; Prevotella bivia strain 8): 16 to 64 µg/mL (≈ 11 to 44.2 µM) | MIC ([1]; Prevotella bivia strain 9): > 64 µg/mL | MIC ([1]; Prevotella bivia strain 10): 16 to 64 µg/mL (≈ 11 to 44.2 µM) | MIC ([2]; Bacteroides fragilis strain 1): 16 to 64 µg/mL (≈ 11 to 44.2 µM) | MIC ([2]; Bacteroides fragilis strain 2): 16 to 64 µg/mL (≈ 11 to 44.2 µM) | MIC ([2]; Bacteroides fragilis strain 3): 4 to 16 µg/mL (≈ 2.76 to 11 µM) | MIC ([2]; Bacteroides fragilis strain 4): 16 to 64 µg/mL (≈ 11 to 44.2 µM) | MIC ([2]; Bacteroides fragilis strain 5): 16 to 64 µg/mL (≈ 11 to 44.2 µM) | MIC ([2]; Bacteroides fragilis strain 6): 4 to 16 µg/mL (≈ 2.76 to 11 µM) | MIC ([2]; Bacteroides fragilis strain 7): 4 to 16 µg/mL (≈ 2.76 to 11 µM) | MIC ([2]; Bacteroides fragilis strain 8): 16 to 64 µg/mL (≈ 11 to 44.2 µM) | MIC ([2]; Bacteroides fragilis strain 9): 4 to 16 µg/mL (≈ 2.76 to 11 µM) | MIC ([2]; Bacteroides fragilis strain 10): 16 to 64 µg/mL (≈ 11 to 44.2 µM) | MIC ([2]; Bacteroides fragilis strain 11): 16 to 64 µg/mL (≈ 11 to 44.2 µM) | MIC ([2]; Bacteroides fragilis strain 12): 16 to 64 µg/mL (≈ 11 to 44.2 µM) | MIC ([3]; Finegoldia magna strain 1): A (a MIC (in μg/mL) of less than 1 is assigned the letter A) | MIC ([3]; Finegoldia magna strain 2): A (a MIC (in μg/mL) of less than 1 is assigned the letter A) | MIC ([3]; Finegoldia magna strain 3): A (a MIC (in μg/mL) of less than 1 is assigned the letter A) | MIC ([3]; Finegoldia magna strain 4): A (a MIC (in μg/mL) of less than 1 is assigned the letter A) | MIC ([3]; Finegoldia magna strain 5): A (a MIC (in μg/mL) of less than 1 is assigned the letter A) | MIC ([3]; Finegoldia magna strain 6, read-out: MIC): < 1 µg/mL | MIC ([3]; Finegoldia magna strain 7): A (a MIC (in μg/mL) of less than 1 is assigned the letter A) | MIC ([3]; Finegoldia magna strain 8): A (a MIC (in μg/mL) of less than 1 is assigned the letter A) | MIC ([3]; Finegoldia magna strain 9): A (a MIC (in μg/mL) of less than 1 is assigned the letter A) | MIC ([3]; Finegoldia magna strain 10): A (a MIC (in μg/mL) of less than 1 is assigned the letter A) | MIC ([3]; Finegoldia magna strain 11): A (a MIC (in μg/mL) of less than 1 is assigned the letter A) | MIC ([3]; Finegoldia magna strain 12): A (a MIC (in μg/mL) of less than 1 is assigned the letter A) | MIC ([4]; Propionibacterium acnes strain 1): < 1 µg/mL | MIC ([4]; Propionibacterium acnes strain 2): < 1 µg/mL | MIC ([4]; Propionibacterium acnes strain 3): < 1 µg/mL | MIC ([4]; Propionibacterium acnes strain 4): < 1 µg/mL | MIC ([4]; Propionibacterium acnes strain 5): < 1 µg/mL | MIC ([4]; Propionibacterium acnes strain 6): < 1 µg/mL | MIC ([4]; Propionibacterium acnes strain 7): < 1 µg/mL | MIC ([4]; Propionibacterium acnes strain 8): < 1 µg/mL | MIC ([4]; Propionibacterium acnes strain 9): < 1 µg/mL | MIC ([4]; Propionibacterium acnes strain 10): < 1 µg/mL | MIC ([4]; Propionibacterium acnes strain 11): < 1 µg/mL | MIC ([4]; Propionibacterium acnes strain 12): 4 to 16 µg/mL (≈ 2.76 to 11 µM) | MIC ([5]; Parvimonas micra strain 1): < 1 µg/mL | MIC ([5]; Parvimonas micra strain 2): < 1 µg/mL | MIC ([5]; Parvimonas micra strain 3): < 1 µg/mL | MIC ([5]; Parvimonas micra strain 4): 1 to 4 µg/mL (≈ 0.69 to 2.76 µM) | MIC ([5]; Parvimonas micra strain 5): 1 to 4 µg/mL (≈ 0.69 to 2.76 µM) | MIC ([5]; Parvimonas micra strain 6): < 1 µg/mL | MIC ([5]; Parvimonas micra strain 7): 1 to 4 µg/mL (≈ 0.69 to 2.76 µM) | MIC ([5]; Parvimonas micra strain 8): < 1 µg/mL | MIC ([5]; Parvimonas micra strain 9): < 1 µg/mL | MIC ([5]; Parvimonas micra strain 10): < 1 µg/mL | MIC ([5]; Parvimonas micra strain 11): < 1 µg/mL | MIC ([5]; Parvimonas micra strain 12): < 1 µg/mL | MIC [6]: 16 to 64 µg/mL (≈ 11 to 44.2 µM) | MIC [7]: 16 to 64 µg/mL (≈ 11 to 44.2 µM) | MIC [8]: < 1 µg/mL | MIC ([9]; Peptostreptococcus anaerobius strain 1): < 1 µg/mL | MIC ([9]; Peptostreptococcus anaerobius strain 2): < 1 µg/mL | MIC ([9]; Peptostreptococcus anaerobius strain 3): < 1 µg/mL | MIC ([9]; Peptostreptococcus anaerobius strain 4): > 64 µg/mL | MIC ([9]; Peptostreptococcus anaerobius strain 5): < 1 µg/mL | MIC ([9]; Peptostreptococcus anaerobius strain 6): < 1 µg/mL | MIC ([9]; Peptostreptococcus anaerobius strain 7): < 1 µg/mL | MIC ([9]; Peptostreptococcus anaerobius strain 8): < 1 µg/mL | MIC ([9]; Peptostreptococcus anaerobius strain 9): < 1 µg/mL | MIC ([9]; Peptostreptococcus anaerobius strain 10): < 1 µg/mL | MIC ([10]; Peptoniphilus harei strain 1): A (a MIC (in μg/mL) of less than 1 is assigned the letter A) | MIC ([10]; Peptoniphilus harei strain 2): A (a MIC (in μg/mL) of less than 1 is assigned the letter A) | MIC ([10]; Peptoniphilus harei strain 3): A (a MIC (in μg/mL) of less than 1 is assigned the letter A) | MIC ([10]; Peptoniphilus harei strain 4): A (a MIC (in μg/mL) of less than 1 is assigned the letter A) | MIC ([10]; Peptoniphilus harei strain 5): A (a MIC (in μg/mL) of less than 1 is assigned the letter A) | MIC ([10]; Peptoniphilus harei strain 6, read-out: MIC): < 1 µg/mL | MIC ([10]; Peptoniphilus harei strain 7): A (a MIC (in μg/mL) of less than 1 is assigned the letter A) | MIC ([10]; Peptoniphilus harei strain 8): A (a MIC (in μg/mL) of less than 1 is assigned the letter A) | MIC ([10]; Peptoniphilus harei strain 9): A (a MIC (in μg/mL) of less than 1 is assigned the letter A) | MIC ([10]; Peptoniphilus harei strain 10): A (a MIC (in μg/mL) of less than 1 is assigned the letter A) | MIC ([10]; Peptoniphilus harei strain 11): A (a MIC (in μg/mL) of less than 1 is assigned the letter A) | MIC ([10]; Peptoniphilus harei strain 12): A (a MIC (in μg/mL) of less than 1 is assigned the letter A) | MIC [11]: 1 to 4 µg/mL (≈ 0.69 to 2.76 µM) | MIC ([12]; Bacteroides thetaiotaomicron strain 1, read-out: MIC): 16 to 64 µg/mL (≈ 11 to 44.2 µM) | MIC ([12]; Bacteroides thetaiotaomicron strain 2, read-out: MIC): 16 to 64 µg/mL (≈ 11 to 44.2 µM) | MIC ([12]; Bacteroides thetaiotaomicron strain 3, read-out: MIC): 16 to 64 µg/mL (≈ 11 to 44.2 µM) | MIC ([12]; Bacteroides thetaiotaomicron strain 4, read-out: MIC): 16 to 64 µg/mL (≈ 11 to 44.2 µM) | MIC ([12]; Bacteroides thetaiotaomicron strain 5, read-out: MIC): 16 to 64 µg/mL (≈ 11 to 44.2 µM) | MIC ([12]; Bacteroides thetaiotaomicron strain 6, read-out: MIC): 16 to 64 µg/mL (≈ 11 to 44.2 µM) | MIC ([12]; Bacteroides thetaiotaomicron strain 7, read-out: MIC): 16 to 64 µg/mL (≈ 11 to 44.2 µM) | MIC ([12]; Bacteroides thetaiotaomicron strain 8, read-out: MIC): 16 to 64 µg/mL (≈ 11 to 44.2 µM) | MIC ([12]; Bacteroides thetaiotaomicron strain 9, read-out: MIC): < 1 µg/mL | MIC ([12]; Bacteroides thetaiotaomicron strain 10, read-out: MIC): 16 to 64 µg/mL (≈ 11 to 44.2 µM) | MIC ([12]; Bacteroides thetaiotaomicron strain 11, read-out: MIC): 16 to 64 µg/mL (≈ 11 to 44.2 µM) | MIC ([13]; Prevotella melaninogenica strain 1): > 64 µg/mL | MIC ([13]; Prevotella melaninogenica strain 2): 4 to 16 µg/mL (≈ 2.76 to 11 µM) | MIC ([13]; Prevotella melaninogenica strain 3): > 64 µg/mL | MIC ([13]; Prevotella melaninogenica strain 4): > 64 µg/mL | MIC ([13]; Prevotella melaninogenica strain 5): 16 to 64 µg/mL (≈ 11 to 44.2 µM) | MIC ([13]; Prevotella melaninogenica strain 6): > 64 µg/mL | MIC ([13]; Prevotella melaninogenica strain 7): 16 to 64 µg/mL (≈ 11 to 44.2 µM) | MIC ([13]; Prevotella melaninogenica strain 8): 4 to 16 µg/mL (≈ 2.76 to 11 µM) | MIC ([13]; Prevotella melaninogenica strain 9): 4 to 16 µg/mL (≈ 2.76 to 11 µM) | MIC ([13]; Prevotella melaninogenica strain 10): > 64 µg/mL | MIC ([13]; Prevotella melaninogenica strain 11): > 64 µg/mL

Source: patent US10487093B2, “Heterocyclic compounds, in particular 2-oxo-4,4,5,5,6,6,7,7-octahydrobenzoxazole derivatives, and their use as antibacterial compounds” (priority 2016, dated 2019)
